Source: PubChem BioAssay (NCI)
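The compound was tested at five concentrations on cells cultured in 96-well plates, with a 48-hour exposure period. The concentration for 50% growth inhibition is given as GI50. TGI: total growth inhibition.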

How the values were obtained:
Assay in all cases: NCI-60 cell line screen, 48 h
UACC-62 melanoma = tested on: UACC-62 melanoma
MDA-MB-231 breast = tested on: MDA-MB-231 breast
SF-295 CNS = tested on: SF-295 CNS
OVCAR-4 ovarian = tested on: OVCAR-4 ovarian
OVCAR-8 ovarian = tested on: OVCAR-8 ovarian
MOLT-4 leukemia = tested on: MOLT-4 leukemia
CAKI-1 renal = tested on: CAKI-1 renal
NCI-H23 lung = tested on: NCI-H23 lung
HOP-92 NSCLC = tested on: HOP-92 NSCLC
MDA-MB-468 breast = tested on: MDA-MB-468 breast
IGROV1 ovarian = tested on: IGROV1 ovarian
HCC-2998 colon = tested on: HCC-2998 colon
K-562 leukemia = tested on: K-562 leukemia
SN12C renal = tested on: SN12C renal
SNB-19 CNS = tested on: SNB-19 CNS
HL-60(TB) leukemia = tested on: HL-60(TB) leukemia
CCRF-CEM leukemia = tested on: CCRF-CEM leukemia
MDA-MB-435 = tested on: MDA-MB-435
DU-145 prostate = tested on: DU-145 prostate
TK-10 renal = tested on: TK-10 renal
A498 renal = tested on: A498 renal
RPMI-8226 leukemia = tested on: RPMI-8226 leukemia
NCI-H522 lung = tested on: NCI-H522 lung
COLO 205 colon = tested on: COLO 205 colon
RXF 393 renal = tested on: RXF 393 renal
UACC-257 melanoma = tested on: UACC-257 melanoma
HT29 colon = tested on: HT29 colon
ACHN renal = tested on: ACHN renal
SW-620 colon = tested on: SW-620 colon
OVCAR-5 ovarian = tested on: OVCAR-5 ovarian
PC-3 prostate = tested on: PC-3 prostate
UO-31 renal = tested on: UO-31 renal
EKVX NSCLC = tested on: EKVX NSCLC
MALME-3M melanoma = tested on: MALME-3M melanoma
SK-MEL-28 melanoma = tested on: SK-MEL-28 melanoma
HCT-116 colon = tested on: HCT-116 colon
SK-MEL-2 melanoma = tested on: SK-MEL-2 melanoma
T-47D breast = tested on: T-47D breast
SR leukemia = tested on: SR leukemia
A549 NSCLC = tested on: A549 NSCLC
U251 CNS = tested on: U251 CNS
LOX IMVI melanoma = tested on: LOX IMVI melanoma
MCF7 breast = tested on: MCF7 breast
HCT-15 colon = tested on: HCT-15 colon
KM12 colon = tested on: KM12 colon
NCI-H460 lung = tested on: NCI-H460 lung
NCI-H226 lung = tested on: NCI-H226 lung
HS 578T breast = tested on: HS 578T breast
SF-268 CNS = tested on: SF-268 CNS
786-0 renal = tested on: 786-0 renal
SNB-75 CNS = tested on: SNB-75 CNS
SK-OV-3 ovarian = tested on: SK-OV-3 ovarian
SK-MEL-5 melanoma = tested on: SK-MEL-5 melanoma
M14 melanoma = tested on: M14 melanoma
OVCAR-3 ovarian = tested on: OVCAR-3 ovarian
HOP-62 NSCLC = tested on: HOP-62 NSCLC
NCI/ADR-RES ovarian = tested on: NCI/ADR-RES ovarian
SF-539 CNS = tested on: SF-539 CNS
BT-549 breast = tested on: BT-549 breast

CN1CCN(c2ccc3c(c2)nc(NNC(=O)c2ncccn2)c2cccn23)CC1
GI50 (UACC-62 melanoma): 828 nM
TGI (UACC-62 melanoma): 3.45 µM
GI50 (MDA-MB-231 breast): 902 nM
TGI (MDA-MB-231 breast): 3.99 µM
GI50 (SF-295 CNS): 622 nM
TGI (SF-295 CNS): 2960 nM
GI50 (OVCAR-4 ovarian): 725 nM
TGI (OVCAR-4 ovarian): 4.1 µM
GI50 (OVCAR-8 ovarian): 655 nM
TGI (OVCAR-8 ovarian): 2380 nM
GI50 (MOLT-4 leukemia): 435 nM
TGI (MOLT-4 leukemia): 15.6 µM
GI50 (CAKI-1 renal): 782 nM
TGI (CAKI-1 renal): 7.62 µM
GI50 (NCI-H23 lung): 1890 nM
TGI (NCI-H23 lung): 10.1 µM
GI50 (HOP-92 NSCLC): 482 nM
TGI (HOP-92 NSCLC): 2460 nM
GI50 (MDA-MB-468 breast): 408 nM
TGI (MDA-MB-468 breast): 1820 nM
GI50 (IGROV1 ovarian): 1670 nM
TGI (IGROV1 ovarian): 11 µM
GI50 (HCC-2998 colon): 706 nM
TGI (HCC-2998 colon): 3000 nM
GI50 (K-562 leukemia): 1880 nM
TGI (K-562 leukemia): > 32.4 µM
GI50 (SN12C renal): 1390 nM
TGI (SN12C renal): 10.8 µM
GI50 (SNB-19 CNS): 966 nM
TGI (SNB-19 CNS): 12.5 µM
GI50 (HL-60(TB) leukemia): 556 nM
TGI (HL-60(TB) leukemia): 4.82 µM
GI50 (CCRF-CEM leukemia): 224 nM
TGI (CCRF-CEM leukemia): 2100 nM
GI50 (MDA-MB-435): 1780 nM
TGI (MDA-MB-435): 13.5 µM
GI50 (DU-145 prostate): 1250 nM
TGI (DU-145 prostate): 11 µM
GI50 (TK-10 renal): 489 nM
TGI (TK-10 renal): 3.05 µM
GI50 (A498 renal): 1720 nM
TGI (A498 renal): 3.32 µM
GI50 (RPMI-8226 leukemia): 2980 nM
TGI (RPMI-8226 leukemia): 13.3 µM
GI50 (NCI-H522 lung): 927 nM
TGI (NCI-H522 lung): 5.31 µM
GI50 (COLO 205 colon): 476 nM
TGI (COLO 205 colon): 1720 nM
GI50 (RXF 393 renal): 1430 nM
TGI (RXF 393 renal): 3.99 µM
GI50 (UACC-257 melanoma): 2280 nM
TGI (UACC-257 melanoma): 6.25 µM
GI50 (HT29 colon): 628 nM
TGI (HT29 colon): 2340 nM
GI50 (ACHN renal): 712 nM
TGI (ACHN renal): 6.01 µM
GI50 (SW-620 colon): 855 nM
TGI (SW-620 colon): 3.83 µM
GI50 (OVCAR-5 ovarian): 1370 nM
TGI (OVCAR-5 ovarian): 5.8 µM
GI50 (PC-3 prostate): 344 nM
TGI (PC-3 prostate): 4.12 µM
GI50 (UO-31 renal): 677 nM
TGI (UO-31 renal): 4.07 µM
GI50 (EKVX NSCLC): 529 nM
TGI (EKVX NSCLC): 3.96 µM
GI50 (MALME-3M melanoma): 1380 nM
TGI (MALME-3M melanoma): 4.29 µM
GI50 (SK-MEL-28 melanoma): 849 nM
TGI (SK-MEL-28 melanoma): 9.03 µM
GI50 (HCT-116 colon): 347 nM
TGI (HCT-116 colon): 2610 nM
GI50 (SK-MEL-2 melanoma): 1280 nM
TGI (SK-MEL-2 melanoma): 4.21 µM
GI50 (T-47D breast): 1660 nM
TGI (T-47D breast): 5.78 µM
GI50 (SR leukemia): 433 nM
TGI (SR leukemia): 11.6 µM
GI50 (A549 NSCLC): 1700 nM
TGI (A549 NSCLC): 11.3 µM
GI50 (U251 CNS): 514 nM
TGI (U251 CNS): 3.94 µM
GI50 (LOX IMVI melanoma): 383 nM
TGI (LOX IMVI melanoma): 2640 nM
GI50 (MCF7 breast): 1980 nM
TGI (MCF7 breast): 9.75 µM
GI50 (HCT-15 colon): 762 nM
TGI (HCT-15 colon): 5.25 µM
GI50 (KM12 colon): 630 nM
TGI (KM12 colon): 12.8 µM
GI50 (NCI-H460 lung): 1220 nM
TGI (NCI-H460 lung): 10.5 µM
GI50 (NCI-H226 lung): 929 nM
TGI (NCI-H226 lung): 2630 nM
GI50 (HS 578T breast): 3.01 µM
TGI (HS 578T breast): 34.5 µM
GI50 (SF-268 CNS): 594 nM
TGI (SF-268 CNS): 11.9 µM
GI50 (786-0 renal): 795 nM
TGI (786-0 renal): 2110 nM
GI50 (SNB-75 CNS): 610 nM
TGI (SNB-75 CNS): 11.4 µM
GI50 (SK-OV-3 ovarian): 459 nM
TGI (SK-OV-3 ovarian): 1830 nM
GI50 (SK-MEL-5 melanoma): 1160 nM
TGI (SK-MEL-5 melanoma): 3.17 µM
GI50 (M14 melanoma): 611 nM
TGI (M14 melanoma): 3000 nM
GI50 (OVCAR-3 ovarian): 704 nM
TGI (OVCAR-3 ovarian): 4.42 µM
GI50 (HOP-62 NSCLC): 453 nM
TGI (HOP-62 NSCLC): 3.2 µM
GI50 (NCI/ADR-RES ovarian): 2570 nM
TGI (NCI/ADR-RES ovarian): 9.44 µM
GI50 (SF-539 CNS): 1090 nM
TGI (SF-539 CNS): 4.2 µM
GI50 (BT-549 breast): 856 nM
TGI (BT-549 breast): 2820 nM
